# Measurements: patent US20250134861A1, “COMPOSITIONS COMPRISING 5-METHOXY-N,N-DIMETHYLTRYPTAMINE (5-MEO-DMT) FOR USE IN TREATING MENTAL DISORDERS” (GH RESEARCH IRELAND LIMITED, priority 2019, published 2025)
# Tests used:
# [1] = tested on: healthy volunteers; test: Clinical trial of inhaled 5-MeO-DMT in healthy volunteers: intensity of the psychedelic effects (PPEQ); assay type: in vivo, human
# Method: (§1) The trial consisted of two parts: Part A, where single doses of 5-MeO-DMT dosage amounts of 2 mg, 6 mg, 12 mg and 18 mg were administered; and Part B, where an initial 5-MeO-DMT dosage amount of 6 mg was administered, and then, unless the participant had already experienced a peak psychedelic experience based on the PPEQ or the supervising physician had decided that further dose increases were inappropriate based on observed side effects, further subsequent dosage amounts of 12 mg and 18 mg were administered with about 3 hours in between each administration. […] Pharmacokinetic analysis of 5-MeO-DMT and bufotenine plasma levels was performed at 1 hour and 3 hours after drug administration in Part A, and at 3 hours after drug administration in Part B.
# 18 participants were recruited into Part A of the study and 4 participants were recruited into Part B. 9 Participants were female and 13 participants were male. Median age was 29 years (range: 19 to 42 years). […]
# The Peak Psychedelic Experience Questionnaire (PPEQ) has been developed by the inventor as an improved alternative to the oceanic boundlessness dimension of the ASC and the MEQ30 to allow a simpler and quicker assessment of the intensity of a psychedelic experience. The PPEQ is comprised of three questions, all to be scored from 0 to 100 by marking a Visual Analogue Scale between 0 and 100 mm: • 1. […]
# [2] = tested on: healthy volunteers; test: Clinical trial of inhaled 5-MeO-DMT in healthy volunteers: safety and tolerability; assay type: in vivo, human
# Method: as §1
# 18 participants were recruited into Part A of the study and 4 participants were recruited into Part B. 9 Participants were female and 13 participants were male. Median age was 29 years (range: 19 to 42 years). In Part A, 4 participants received 2 mg, 6 participants received 6 mg, 4 participants received 12 mg and 4 participants received 18 mg of 5-MeO-DMT. In Part B, 1 participant received 6 mg, 2 participants received 6 mg and then 12 mg and one participant received 6 mg, 12 mg and then 18 mg of 5-MeO-DMT.
# [3] = Clinical trial of inhaled 5-MeO-DMT in healthy volunteers: 5-MeO-DMT and bufotenine plasma levels; assay type: in vivo, human
# Method: as §1
# [4] = tested on: respondents with self-reported psychiatric conditions; details: majority of respondents; ritual or recreational use; observational; cited from earlier work
# [5] = Part A, 2 mg single inhaled dose (n = 4), Administration day, possibly or probably related, mild
# [6] = Part A, 6 mg single inhaled dose (n = 6), Administration day, possibly or probably related, mild
# [7] = Part A, 6 mg single inhaled dose (n = 6), Day 1, possibly or probably related, mild
# [8] = Part A, 18 mg single inhaled dose (n = 4), Administration day, possibly or probably related, mild
# [9] = Part A, 18 mg single inhaled dose (n = 4), Day 1, possibly or probably related, mild
# [10] = Part B, 12 mg (n = 3), after 6 mg, Administration day, possibly or probably related, mild
compound,measurement,setting,value
"COc1ccc2[nH]cc(CCN(C)C)c2c1 [5-MeO-DMT, 5-methoxy-N,N-dimethyltryptamine]",Intensity of the psychedelic experience with dose escalation,"[1]; Part B, 6 mg, then 12 mg and 18 mg about 3 hours apart",increased with the increasing dosage amounts in all participants
same,Onset of the first psychedelic symptoms after the inhalation,"[1]; all participants, 2 to 18 mg inhaled",within a few seconds
same,"Evaluation of ECG, safety laboratory analyses, CADSS and cognitive tests (PVT, DSST, PMT)",[2]; Part A and Part B,unremarkable
same,Severity and course of reported adverse events,[2]; Part A and Part B,all mild (except for one moderate event) and all resolved spontaneously
same,Inhalation-related adverse events,"[2]; Part A and Part B, 2 to 18 mg inhaled",No inhalation-related adverse events
same,Adverse events reported: Nausea,[2]; [5],2
same,Adverse events reported: Tachycardia,[2]; [5],1
same,Adverse events reported: Vision blurred,[2]; [5],1
same,Adverse events reported: Anxiety,[2]; [6],1
same,Adverse events reported: Headache,[2]; [6],1
same,Adverse events reported: Nausea,[2]; [6],1
same,Adverse events reported: Clumsiness,[2]; [7],1
same,Adverse events reported: Feeling hot,[2]; [7],1
same,Adverse events reported: Headache,[2]; [7],1
same,Adverse events reported: Anxiety,"[2]; Part A, 12 mg single inhaled dose (n = 4), Administration day, possibly or probably related, mild",1
same,Adverse events reported: Heart rate increased,"[2]; Part A, 12 mg single inhaled dose (n = 4), Administration day, possibly or probably related, this event was moderate",1^1
same,Adverse events reported: Headache,[2]; [8],1
same,Adverse events reported: Nausea,[2]; [8],1
same,Adverse events reported: Abnormal dreams,[2]; [9],1
same,Adverse events reported: Fatigue,[2]; [9],1
same,Adverse events reported: Hallucination,[2]; [9],1
same,Adverse events reported: Hyperacusis,[2]; [9],1
same,Adverse events reported: Insomnia,[2]; [9],1
same,Adverse events reported: Mental fatigue,[2]; [9],1
same,Adverse events reported: Flashback,"[2]; Part A, 18 mg single inhaled dose (n = 4), Day 7, possibly or probably related, mild",1
same,Adverse events reported: Nausea,"[2]; Part B, 6 mg inhaled (n = 4), Administration day, possibly or probably related, mild",1
same,Adverse events reported: Fatigue,[2]; [10],1
same,Adverse events reported: Head discomfort,[2]; [10],1
same,Adverse events reported: Headache,[2]; [10],1
same,Adverse events reported: Nausea,[2]; [10],1
same,Adverse events reported,"[2]; Part B, 18 mg (n = 1), after 12 mg and 6 mg, Administration day, Day 1 and Day 7",None reported
same,Changes in vital parameters,"[2]; shortly after administration, no other noteworthy changes","temporary, not clinically relevant increase in heart rate and blood pressure"
same,5-MeO-DMT plasma levels,"[3]; Part A and Part B, 3-hour time point, LLOQ of the 5-MeO-DMT assay 0.014 ng/ml",reached the lower level of quantification (LLOQ)
same,5-MeO-DMT plasma levels,"[3]; any dose in Part A, 1-hour timepoint",very low
same,"Self-perceived change of psychiatric symptoms (anxiety, depression, substance use problems, post-traumatic stress disorder)",[4],perceived improvements in symptoms
